For eight molecules, IC50 results are on record in US8324219B2, “Substituted benzoimidazolyl-pyrazine compounds for inflammation and immune-related uses” (Synta Pharmaceuticals Corp., priority 2007, dated 2012).

Where a name gives a salt, the structure may show the parent alone.

For the first test, the system named is IL-2 production. Kind of test: Inhibition of IL-2 production in PHA-activated Jurkat cells (ELISA). The test is classed as cell-based. As to conditions: Homo sapiens, Jurkat, 20 h, PHA 2.5 μg/mL. As to the method: Jurkat cells were placed in a 96 well plate (0.5 million cells per well in 1% FBS medium) then a test compound of this invention was added at different concentrations. After 10 minutes, the cells were activated with PHA (final concentration 2.5 μg/mL) and incubated for 20 hours at 37° C. under CO2. The final volume was 200 μL. Following incubation, the cells were centrifuged and the supernatants were collected and stored at −70° C. prior to assaying for IL-2 production. A commercial ELISA kit (IL-2 Eli-pair, Diaclone Research, Besancon, France) was used to detect production of IL-2, from which dose response curves were obtained. The IC50 value was calculated as the concentration at which 50% of maximum IL-2 production after stimulation was inhibited versus a non-stimulation control.
As usually defined, the IC50 is the concentration at which inhibition is half-maximal. A high value points to weaker potency in that assay. As to `O=C(Nc1cnc(-n2c(C(F)(F)F)nc3cc(O)ccc32)cn1)c1c(F)cccc1F` [Compound 4, 2,6-Difluoro-N-[5-(5-hydroxy-2-trifluoromethyl-benzoimidazol-1-yl)-pyrazin-2-yl]-benzamide, sodium salt], the IC50 was 0.014 µM.

The test is the same for the next values; noted with them: Homo sapiens, PHA 2.5 μg/mL, 20 hours.
The molecule `O=C(Nc1cnc(-n2c(C(F)(F)F)nc3cc(O)ccc32)cn1)c1c(F)cccc1F` [Compound 1, 2,6-Difluoro-N-[5-(5-hydroxy-2-trifluoromethyl-benzoimidazol-1-yl)-pyrazin-2-yl]-benzamide] yielded an IC50 of 0.034 µM.
Regarding `O=C(Nc1cnc(-n2c(C(F)(F)F)nc3cc([N+](=O)[O-])ccc32)cn1)c1c(F)cccc1F` [Compound 2, 2,6-Difluoro-N-[5-(5-nitro-2-trifluoromethyl-benzoimidazol-1-yl)-pyrazin-2-yl]-benzamide], the IC50 came out at 0.089 µM.
Same read-out and setting: next, `COc1ccc2c(c1)nc(C)n2-c1cnc(NC(=O)c2c(F)cccc2F)cn1` [Compound 3, 2,6-Difluoro-N-[5-(5-methoxy-2-methyl-benzoimidazol-1-yl)-pyrazin-2-yl]-benzamide]: 0.102 µM; `CN(C)c1ccc2c(c1)nc(C(F)(F)F)n2-c1cnc(NC(=O)c2c(F)cccc2F)cn1` [Compound 5, N-[5-(5-Dimethylamino-2-trifluoromethyl-benzoimidazol-1-yl)-pyrazin-2-yl]-2,6-difluoro-benzamide]: 0.029 µM.
Same read-out and setting: under `Nc1ccc2c(c1)nc(C(F)(F)F)n2-c1cnc(NC(=O)c2c(F)cccc2F)cn1` [Compound 6, N-[5-(5-Amino-2-trifluoromethyl-benzoimidazol-1-yl)-pyrazin-2-yl]-2,6-difluoro-benzamide] stands 0.097 µM; under `O=C(Nc1cnc(-n2c(C(F)(F)F)nc3cc(-c4nnco4)ccc32)cn1)c1c(F)cccc1F` [Compound 8, 2,6-Difluoro-N-[5-(5-[1,3,4]oxadiazol-2-yl-2-trifluoromethyl-benzoimidazol-1-yl)-pyrazin-2-yl]-benzamide], 0.039 µM; under `Cc1nnc(-c2ccc3c(c2)nc(C(F)(F)F)n3-c2cnc(NC(=O)c3c(F)cccc3F)cn2)o1` [Compound 9, 2,6-Difluoro-N-{5-[5-(5-methyl-[1,3,4]oxadiazol-2-yl)-2-trifluoromethyl-benzoimidazol-1-yl]-pyrazin-2-yl}-benzamide], 0.084 µM.
